In patent US11542262B2, “Phosphatidylinositol 3-kinase inhibitors” (NANJING ZHENGXIANG PHARMACEUTICALS CO., LTD., priority 2019, dated 2023):
Read-outs that look alike come from different tables or passages of the source.

What was measured:
[1] = target: PI3Kγ (Homo sapiens, UniProt P48736); test: ADP-Glo luminescent assay, enzymatic activity of PI3K gamma; type: biochemical; conditions: ATP 25 μM; read-out: PI3K gamma (nM) inhibitory activity (IC50)
[2] = target: T1, PI3K delta (Homo sapiens, UniProt O00329); test: Raji cell assay: phosphorylation of AKT in anti-IgM stimulated Raji cells (AlphaLISA); type: cell-based; conditions: pAKT, read-out: PI3K delta Raji cell (nM) cellular activity (IC50)
T1 construct: endogenous in cells; host or cells: Raji
Protocol: This study aims to determine the inhibitory effect of compounds on PI3K gamma and PI3K delta in corresponding cell based assays. PI3K gamma activity was reflected by phosphorylation of AKT in C5a stimulated RAW264.7 cells, and PI3K delta activity was reflected by phosphorylation of AKT in anti-IgM stimulated Raji cells. Phosphorylation of AKT in cells was determined using AlphaLISA technology from PerkinElmer.
Raji cell assay: Prepare Passage 11 Raji cell and add 6 μL of 60K cells per well in 384-well plate. Centrifuge at 500 RPM for 30 s and incubate for 2 hours at 37° C., 5% CO2. Add 30 nL compound by Echo and incubate for 30 min at 37° C. Add 2 μL of IgM (4×, 12 μg/mL) per well, centrifuge at 500 RPM for 30 s and incubate for 10 min at 37° C. Add 2 μL of 5× lysis buffer by Multidrop. Shake 10 min on a plate shaker. Add 5 μL acceptor mix provided in the kit. Centrifuge at 1000 RPM for 1 min. Add 5 μL donor mix provided in the kit. Centrifuge at 1000 RPM for 1 min. Then incubate for 2 hours at 25° C., keep the plate in dark. Read AlphaLISA signal on Envision.
Data analysis: Fit the cpd IC50 from non-linear regression equation. Y=Bottom+(Top−Bottom)/(1+10^((Log IC50−X)*Hill Slope)) X: Log of cpd concentration Y: Inhibition

[3] = Pharmacokinetics in dogs; type: in vivo; conditions: IV bolus at 1 mg/kg and PO at 5 mg/kg; for bioavailability / clearance / half-life: male, dog, plasma; for bioavailability: beagle, oral, 5 mg/kg, read-out: F (%) oral bioavailability
Protocol: Dosing solutions were prepared at 1 mg/mL in 5% DMSO/40% PEG400/55% water. A dosing solution was administered to male beagle dogs (Approximately 9-14 kg, 3 dogs each group) via intravenous (IV) bolus at 1 mg/kg and by oral gavage (PO) at 5 mg/kg. The dosing volume was 1 mL/kg for IV administration and 5 mL/kg for oral gavage. Blood samples (˜0.3 mL each time point) were collected into tubes containing potassium ethylenediaminetetraacetic acid (K2EDTA) as the anticoagulant at 0.033, 0.083, 0.25, 0.5, 1, 2, 4, 8 and 24 hours post dose for IV administration and 0.083, 0.25, 0.5, 1, 2, 4, 8 and 24 hours post dose for PO administration. The blood samples were then centrifuged for 5 minutes in a centrifuge refrigerated at 4° C. The resultant plasma samples were analyzed using LC/MS/MS to determine concentrations of a test compound. Non-compartmental model with WinNonlin (Phoenix™, version 6.1) software was used to calculate pharmacokinetic (PK) parameters.

[4] = tested on: MOG35-55 induced EAE; test: Efficacy on MOG35-55 induced EAE; type: in vivo, C57BL/6 mice; conditions: 20 mg/kg and 80 mg/kg BID PO, 14 days from day 10, FIG. 2
[5] = tested on: 4T1 cells; test: Anti-tumor efficacy in 4T1 syngeneic mouse tumor model; type: in vivo; conditions: 4T1 in BALB/c mice, oral gavage 100 mg/kg, FIG. 1
Protocol: BALB/c mice were inoculated subcutaneously at the fourth mammary pad with 4T1 cells for tumor development. On the next day after tumor cell inoculation, the mice were assigned into 2 groups using stratified randomization with 10 mice in each group based upon their body weight and inoculation order. […] The tumor sizes were measured three times per week during the treatment. Tumor volume was calculated by the formula: length×width^2/2.

[6] = Pharmacokinetics in mice (plasma and brain concentrations); type: in vivo, CD-1 mice; conditions: male CD1 mouse, oral gavage 20 mg/kg
Protocol: The dosing solution was administered to male CD-1 mice via oral gavage (PO) at 20 mg/kg. Blood and brain tissue samples were collected at 0.5, 2 and 8 hours post-dose. The blood samples were then centrifuged for 5 minutes in a centrifuge refrigerated at 4° C. The brain samples after blood removal were homogenized in water.

T1 sequence (O00329 whole entry): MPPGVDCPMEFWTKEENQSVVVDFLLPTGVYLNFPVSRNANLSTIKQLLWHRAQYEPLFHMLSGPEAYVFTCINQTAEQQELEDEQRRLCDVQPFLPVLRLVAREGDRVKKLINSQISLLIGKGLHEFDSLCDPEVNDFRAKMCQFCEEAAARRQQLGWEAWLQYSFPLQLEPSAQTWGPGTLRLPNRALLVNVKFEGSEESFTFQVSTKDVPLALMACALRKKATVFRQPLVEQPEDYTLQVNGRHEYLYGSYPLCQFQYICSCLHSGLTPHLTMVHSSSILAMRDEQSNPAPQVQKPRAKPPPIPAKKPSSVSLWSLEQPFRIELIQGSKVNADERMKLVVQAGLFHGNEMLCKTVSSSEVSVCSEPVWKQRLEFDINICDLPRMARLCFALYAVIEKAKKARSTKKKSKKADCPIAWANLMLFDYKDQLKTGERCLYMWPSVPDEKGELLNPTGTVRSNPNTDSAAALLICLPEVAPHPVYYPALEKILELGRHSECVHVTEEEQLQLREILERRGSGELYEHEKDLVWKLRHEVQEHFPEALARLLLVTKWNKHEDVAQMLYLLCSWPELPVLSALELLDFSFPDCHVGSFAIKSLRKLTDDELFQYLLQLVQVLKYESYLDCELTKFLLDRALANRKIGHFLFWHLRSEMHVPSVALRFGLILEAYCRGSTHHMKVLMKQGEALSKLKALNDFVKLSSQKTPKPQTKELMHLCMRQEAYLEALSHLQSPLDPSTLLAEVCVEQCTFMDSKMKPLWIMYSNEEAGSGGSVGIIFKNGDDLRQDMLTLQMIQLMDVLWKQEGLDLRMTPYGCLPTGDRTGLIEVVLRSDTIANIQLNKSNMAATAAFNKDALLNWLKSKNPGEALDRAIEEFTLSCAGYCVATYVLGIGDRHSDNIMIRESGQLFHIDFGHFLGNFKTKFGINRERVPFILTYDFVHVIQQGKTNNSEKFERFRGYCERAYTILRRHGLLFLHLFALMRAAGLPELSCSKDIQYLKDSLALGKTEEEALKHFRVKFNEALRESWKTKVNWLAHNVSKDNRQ
T1 sequence (P27986 whole entry partner): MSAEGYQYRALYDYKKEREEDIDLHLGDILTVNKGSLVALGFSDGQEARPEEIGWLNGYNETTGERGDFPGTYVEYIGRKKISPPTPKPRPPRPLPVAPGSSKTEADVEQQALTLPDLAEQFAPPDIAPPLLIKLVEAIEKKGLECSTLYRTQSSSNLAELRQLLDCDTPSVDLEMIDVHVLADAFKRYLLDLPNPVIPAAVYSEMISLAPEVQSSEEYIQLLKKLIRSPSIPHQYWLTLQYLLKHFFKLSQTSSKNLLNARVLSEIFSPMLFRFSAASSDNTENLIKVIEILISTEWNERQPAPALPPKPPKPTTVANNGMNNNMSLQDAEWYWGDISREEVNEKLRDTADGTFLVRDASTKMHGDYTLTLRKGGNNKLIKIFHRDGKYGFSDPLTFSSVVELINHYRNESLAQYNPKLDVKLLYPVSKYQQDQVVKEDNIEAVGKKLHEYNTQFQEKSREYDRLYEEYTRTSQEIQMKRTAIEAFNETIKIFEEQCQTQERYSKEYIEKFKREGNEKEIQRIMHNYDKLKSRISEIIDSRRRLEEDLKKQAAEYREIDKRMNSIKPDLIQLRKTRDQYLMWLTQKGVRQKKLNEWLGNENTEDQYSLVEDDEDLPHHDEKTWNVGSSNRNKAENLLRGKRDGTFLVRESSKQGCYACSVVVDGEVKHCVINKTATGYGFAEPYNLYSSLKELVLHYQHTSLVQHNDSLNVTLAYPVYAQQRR
Chain of PI3Kγ (P48736 whole entry, species assumed): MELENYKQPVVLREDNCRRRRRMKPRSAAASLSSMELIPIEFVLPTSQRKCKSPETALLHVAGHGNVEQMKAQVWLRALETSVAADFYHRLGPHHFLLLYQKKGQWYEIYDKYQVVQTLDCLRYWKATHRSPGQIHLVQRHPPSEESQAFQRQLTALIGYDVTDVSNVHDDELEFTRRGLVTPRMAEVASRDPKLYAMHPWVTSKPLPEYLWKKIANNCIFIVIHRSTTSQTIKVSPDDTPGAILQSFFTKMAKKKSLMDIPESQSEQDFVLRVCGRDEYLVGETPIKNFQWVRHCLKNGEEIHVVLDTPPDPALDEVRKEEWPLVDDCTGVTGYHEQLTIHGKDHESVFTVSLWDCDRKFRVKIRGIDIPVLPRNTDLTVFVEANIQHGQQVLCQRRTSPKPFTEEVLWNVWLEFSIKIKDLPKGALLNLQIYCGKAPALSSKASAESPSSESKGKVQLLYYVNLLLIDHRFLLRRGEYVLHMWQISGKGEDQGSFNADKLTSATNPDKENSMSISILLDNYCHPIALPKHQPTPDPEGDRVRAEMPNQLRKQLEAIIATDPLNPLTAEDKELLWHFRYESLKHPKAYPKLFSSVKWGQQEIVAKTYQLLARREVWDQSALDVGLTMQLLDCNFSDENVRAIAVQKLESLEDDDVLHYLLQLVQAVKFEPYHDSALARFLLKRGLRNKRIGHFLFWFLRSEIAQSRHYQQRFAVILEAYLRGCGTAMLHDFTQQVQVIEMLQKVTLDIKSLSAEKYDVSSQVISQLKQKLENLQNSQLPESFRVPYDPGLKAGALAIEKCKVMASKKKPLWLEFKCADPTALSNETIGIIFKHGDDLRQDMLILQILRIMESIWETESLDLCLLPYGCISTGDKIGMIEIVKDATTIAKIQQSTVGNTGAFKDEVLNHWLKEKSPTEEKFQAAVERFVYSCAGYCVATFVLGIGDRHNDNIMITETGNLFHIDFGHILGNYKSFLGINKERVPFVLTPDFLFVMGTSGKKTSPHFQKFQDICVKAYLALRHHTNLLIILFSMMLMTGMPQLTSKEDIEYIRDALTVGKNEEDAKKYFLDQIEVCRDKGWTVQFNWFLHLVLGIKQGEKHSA

IC50 [1]	IC50 [2]	F (%) oral bioavailability ([3]; beagle dogs)	Vssobs ([3]; beagle dogs)	bioavailability [3]	clearance ([3]; beagle dogs)	half-life ([3]; beagle dogs)	concentration at 0.5 h ([6]; CD-1, brain, read-out: Brain)	concentration at 2 h ([6]; CD-1, brain, read-out: Brain)	concentration at 8 h ([6]; CD-1, brain, read-out: Brain)	concentration at 0.5 h ([6]; CD-1, plasma, read-out: Plasma)	concentration at 2 h ([6]; CD-1, plasma, read-out: Plasma)	concentration at 8 h ([6]; CD-1, plasma, read-out: Plasma)	Compound	clinical disability symptom (EAE clinical score) [4]	tumor growth (tumor volume) [5]
1.3 nM	2160 nM	108%	2.1 L/kg	107%	6.1 mL/min/kg	7.2 h							CC(=O)Nc1nc(C)c(-c2cc3c(c(NS(C)(=O)=O)n2)C(=O)N([C@@H](C)C2CC2)C3)s1 [Compound 20, (S)-N-(5-(2-(1-cyclopropylethyl)-4-(methylsulfonamido)-3-oxo-2,3-dihydro-1H-pyrrolo[3,4-c]pyridin-6-yl)-4-methylthiazol-2-yl)acetamide]		
	1960 nM		2.7 L/kg	> 68%	4.5 mL/min/kg	9.1 h	2490 ng/g	473 ng/g	454 ng/g	2800 ng/mL	1200 ng/mL	1370 ng/mL	CC(=O)Nc1nc(C)c(-c2cc3c(c(N4CCOCC4)n2)C(=O)N([C@@H](C)C2CC2)C3)s1 [Compound 34, (S)-N-(5-(2-(1-cyclopropylethyl)-4-morpholino-3-oxo-2,3-dihydro-M-pyrrolo[3,4-c]pyridin-6-yl)-4-methylthiazol-2-yl)acetamide]	significantly ameliorated the clinical disability symptom	significantly suppressed tumor growth
